Reference: publication PMC9435431, “Novel chemical entities inhibiting Mycobacterium tuberculosis growth identified by phenotypic high-throughput screening” (Scientific Reports, 2022)
In brackets after ≈: the same amount, converted by molar mass. Read-outs that look alike come from different tables or passages of the source.

Experiments:
[1] = tested on: wild-type M. tuberculosis; experiment: microbe, parasite or virus in culture; assay type: cell-based, Mycobacterium tuberculosis; settings: for MIC / IC90: Mycobacterium tuberculosis
in vitro = in vitro ADME, human; settings: for microsomal clearance / stability (in words): human microsomes; for CLint scaled at 0.5 µM: human, microsomes, pH 7.4, human Clint
Experimental: Compounds (0.5 µM) were incubated with 0.25 mg/mL liver microsomal proteins at pH 7.4 at 37 °C. Reactions were initiated with […] and samples taken at 0, 5, 10, 15, 20 and 30 min. The reaction was stopped by addition of 95% ACN/5% MeOH containing an internal standard. Samples were combined in compound groups of six pre-sorted by mono molecular weight and analyzed by LC/MS/MS. The peak area ratios (analyte peak area/IS peak area) were converted to % remaining using the area ratio at time 0 as 100%. The. half-life (T ½) and intrinsic clearance (mCLint) were calculated.

[2] = Table 5, read-out: Wild-type MIC

Structure (SMILES)	MIC ([1]; 120 h, read-out: MIC)	MIC ([1]; read-out: MIC)	anti-tubercular activity (in words) [1]	microsomal clearance / stability (in words) (in vitro)	CLint scaled at 0.5 µM (in vitro)	MIC [1, 2]	IC90 [1]
CC(C)(C)CC(C)(C)N1CC=C(c2c[nH]c3ccccc23)CC1 [Molecule 4PP-47, 3-(1-(2,4,4-Trimethylpentan-2-yl)-1,2,3,6-tetrahydropyridin-4-yl)-1H-indole]	9.6 ± 2.2 µM (≈ 2.98 µg/mL)	9.6 µM (≈ 2.98 µg/mL)					
CC(C)(C)CC(C)(C)N1CCC(c2c[nH]c3ccccc23)CC1 [Molecule 4PP-48, 3-(1-(2,4,4-Trimethylpentan-2-yl)piperidin-4-yl)-1H-indole]	1.6 µM (≈ 0.5 µg/mL)	1.6 µM (≈ 0.5 µg/mL)					
CC(C)(C)CC(C)(C)N1CCN(c2ccc(C(C)(C)C)cc2)CC1 [Molecule 4PP-49, 1-(4-(t-Butyl)phenyl)-4-(2,4,4-trimethylpentan-2-yl)piperazine]	> 5 µM		loss in activity				
CC(C)(C)CC(C)(C)N1CCN(c2ccccc2)CC1 [Molecule 4PP-50, 1-Phenyl-4-(2,4,4-trimethylpentan-2-yl)piperazine]	> 10 µM		loss in activity				
FC1CN(CC2CCCCC2)CCC1c1ccccc1.O=C(O)C(F)(F)F (stereo not drawn) [Molecule 4PP-51, 1-(Cyclohexylmethyl)-3-fluoro-4-phenyl-piperidine; 2,2,2-trifluoroacetic acid]	> 20 µM		not tolerated				
FC1CN(CC2CCCCC2)CCC1c1ccc(Cl)cc1.O=C(O)C(F)(F)F (stereo not drawn) [Molecule 4PP-52, 4-(4-Chlorophenyl)-1-(cyclohexylmethyl)-3-fluoro-piperidine; 2,2,2-trifluoroacetic acid]	> 20 µM		not tolerated				
COc1ccc(C2CCN(CC3CCCCC3)CC2F)cc1.O=C(O)C(F)(F)F (stereo not drawn) [Molecule 4PP-53, 1-(Cyclohexylmethyl)-3-fluoro-4-(4-methoxyphenyl)piperidine; 2,2,2-trifluoroacetic acid]	> 20 µM		not tolerated				
COc1cc(CCNC(=O)C2(c3ccccc3)CCC2)ccc1O [PCB-3, N-(4-hydroxy-3-methoxyphenethyl)-1-phenylcyclobutane-1-carboxamide]	> 20 µM	> 20 µM		clearance was improved	12.5 L/h/kg		
O=C(NCCc1ccc2c(c1)OCO2)C1(c2ccccc2)CCC1 [PCB-4, N-(2-(benzo[d][1,3]dioxol-5-yl)ethyl)-1-phenylcyclobutane-1-carboxamide]	12 ± 2.6 µM (≈ 3.88 µg/mL)		retained anti-tubercular activity	intermediate clearance	52.1 L/h/kg		
O=C(NCCc1cccc(Br)c1)C1(c2ccccc2)CCC1 [PCB-5, N-(3-bromophenethyl)-1-phenylcyclobutane-1-carboxamide]	4.9 ± 1.7 µM (≈ 1.76 µg/mL)	4.9 µM (≈ 1.76 µg/mL)			236 L/h/kg		
O=C(NCCc1ccc(Br)cc1)C1(c2ccccc2)CCC1 [PCB-6, N-(4-bromophenethyl)-1-phenylcyclobutane-1-carboxamide]	5.4 ± 0.3 µM (≈ 1.93 µg/mL)	5.4 µM (≈ 1.93 µg/mL)			35.6 L/h/kg		
O=C(NCCc1cccc(C(F)(F)F)c1)C1(c2ccccc2)CCC1 [PCB-7, 1-phenyl-N-(3-(trifluoromethyl)phenethyl)cyclobutane-1-carboxamide]	3.7 ± 2.7 µM (≈ 1.29 µg/mL)	3.7 µM (≈ 1.29 µg/mL)		increased clearance	270 L/h/kg		
O=C(NCCc1cc(Br)ccn1)C1(c2ccccc2)CCC1 [PCB-8, N-(2-(4-bromopyridin-2-yl)ethyl)-1-phenylcyclobutane-1-carboxamide]	> 20 µM	> 20 µM		improved clearance	69.7 L/h/kg		
O=C(N[C@H]1CCc2ccc(Br)cc2C1)C1(c2ccccc2)CCC1 [PCB-9, (S)-N-(7-bromo-1,2,3,4-tetrahydronaphthalen-2-yl)-1-phenylcyclobutane-1-carboxamide]	6.9 ± 2.9 µM (≈ 2.65 µg/mL)	6.9 µM (≈ 2.65 µg/mL)		increased microsomal clearance	273 L/h/kg		
O=C(Nc1ncc2c(Br)cccc2n1)C1(c2ccccc2)CCC1 [PCB-10, N-(5-bromoquinazolin-2-yl)-1-phenylcyclobutane-1-carboxamide]	9.3 ± 1 µM (≈ 3.56 µg/mL)	9.3 µM (≈ 3.56 µg/mL)		reasonable clearance	14.4 L/h/kg		
O=C(NCC(O)c1ccc2c(c1)OCO2)C1(c2ccccc2)CCC1 (stereo not drawn) [PCB-11, N-(2-(benzo[d][1,3]dioxol-5-yl)-2-hydroxyethyl)-1-phenylcyclobutane-1-carboxamide]	> 20 µM	> 20 µM		lower clearance	9.66 L/h/kg		
O=C(CNC(=O)C1(c2ccccc2)CCC1)c1cccc(Br)c1 [PCB-12, N-(2-(3-bromophenyl)-2-oxoethyl)-1-phenylcyclobutane-1-carboxamide]	7.3 ± 0.3 µM (≈ 2.72 µg/mL)		tolerated	did not improve clearance	47.3 L/h/kg		

Structure (SMILES)	MIC ([1]; 120 h, read-out: MIC)	MIC ([1]; read-out: MIC)	anti-tubercular activity (in words) [1]	microsomal clearance / stability (in words) (in vitro)	CLint scaled at 0.5 µM (in vitro)	MIC [1, 2]	IC90 [1]
Brc1cccc(-c2nc(C3(c4ccccc4)CCC3)no2)c1 [PCB-13, 5-(3-bromophenyl)-3-(1-phenylcyclobutyl)-1,2,4-oxadiazole]	> 20 µM		loss of activity	high clearance	266 L/h/kg		
CN(CCc1cccc(Br)c1)C(=O)C1(c2ccccc2)CCC1 [PCB-14, N-(3-bromophenethyl)-N-methyl-1-phenylcyclobutane-1-carboxamide]	> 20 µM		inactive	highly metabolized	447 L/h/kg		
O=C(NCCc1cccc(Br)c1)C1(c2ccc(Cl)cc2)CCC1 [PCB-15, N-(3-bromophenethyl)-1-(4-chlorophenyl)cyclobutane-1-carboxamide]	9.7 ± 6.7 µM (≈ 3.81 µg/mL)		slight reduction	clearances increased	559 L/h/kg		
O=C(NCCc1cccc(Br)c1)C1(c2cccc(Cl)c2)CCC1 [PCB-16, N-(3-bromophenethyl)-1-(3-chlorophenyl)cyclobutane-1-carboxamide]	5 ± 1.6 µM (≈ 1.96 µg/mL)		little change	clearances increased	552 L/h/kg	5 µM (≈ 1.96 µg/mL)	
O=C(NCCc1cccc(Br)c1)C1(c2ccccc2Cl)CCC1 [PCB-17, N-(3-bromophenethyl)-1-(2-chlorophenyl)cyclobutane-1-carboxamide]	1.8 ± 0.7 µM (≈ 0.707 µg/mL)		increase in activity	clearances increased	673 L/h/kg	1.8 µM (≈ 0.707 µg/mL)	
O=C(NCCc1cccc(Br)c1)C1(c2ccc(Cl)cc2Cl)CCC1 [PCB-18, N-(3-bromophenethyl)-1-(2,4-dichlorophenyl)cyclobutane-1-carboxamide]	13 ± 5 µM (≈ 5.55 µg/mL)		low antitubercular activity	very low stability	1690 L/h/kg		
O=C(NCCc1cccc(Br)c1)C1(c2ccccc2F)CCC1 [PCB-20, N-(3-bromophenethyl)-1-(2-fluorophenyl)cyclobutane-1-carboxamide]	5.5 ± 2.1 µM (≈ 2.07 µg/mL)			very poor microsomal stability	263 L/h/kg		
O=C(NCCc1cccc(Br)c1)C1(c2ccccc2C(F)(F)F)CCC1 [PCB-22, N-(3-bromophenethyl)-1-(2-(trifluoromethyl)phenyl)cyclobutane-1-carboxamide]	5.7 ± 2.8 µM (≈ 2.43 µg/mL)				975 L/h/kg		
Cc1ccccc1C1(C(=O)NCCc2cccc(Br)c2)CCC1 [PCB-23, N-(3-bromophenethyl)-1-(o-tolyl)cyclobutane-1-carboxamide]	1.3 ± 0.5 µM (≈ 0.484 µg/mL)	1.3 µM (≈ 0.484 µg/mL)			391 L/h/kg	1.3 µM (≈ 0.484 µg/mL)	
O=C(NCCc1cccc(Br)c1)C1(c2ccccc2)CC(F)(F)C1 [PCB-24, N-(3-bromophenethyl)-3,3-difluoro-1-phenylcyclobutane-1-carboxamide]	15 ± 3.7 µM (≈ 5.91 µg/mL)	15 µM (≈ 5.91 µg/mL)		poor microsomal stability	263 L/h/kg		
O=C(NCCc1cccc(Br)c1)C1(c2ccccc2)COC1 [PCB-25, N-(3-bromophenethyl)-3-phenyloxetane-3-carboxamide]	12 ± 2.8 µM (≈ 4.32 µg/mL)	12 µM (≈ 4.32 µg/mL)		some improvement in clearance	20 L/h/kg		
COc1ccc(CCNC(=O)C2(c3ccc(F)cc3)CCC2)cc1Br [PCB-26, N-(3-bromo-4-methoxyphenethyl)-1-(4-fluorophenyl)cyclobutane-1-carboxamide]	2.8 ± 0.1 µM (≈ 1.14 µg/mL)	2.8 µM (≈ 1.14 µg/mL)		at the expense of clearance	149 L/h/kg		
COc1ccc(CCNC(=O)C2(c3ccccc3Cl)CCC2)cc1-c1ccccc1 [PCB-27, 1-(2-chlorophenyl)-N-(2-(6-methoxy-[1,1'-biphenyl]-3-yl)ethyl)cyclobutane-1-carboxamide]	3.6 ± 1.3 µM (≈ 1.51 µg/mL)			much higher clearance	1680 L/h/kg		
O=C(NCCc1cccc(C(F)(F)F)c1)C1(c2ccccc2)COC1 [PCB-28, 3-phenyl-N-(3-(trifluoromethyl)phenethyl)oxetane-3-carboxamide]	9.1 ± 0.8 µM (≈ 3.18 µg/mL)		loss in activity	improved clearance	13.9 L/h/kg		
COc1ccc(-c2cc(N)nc(-n3nc(C)cc3C)n2)cc1 [PZP-1]							5.2 µM
Cc1cc(C)n(-c2nc(N)cc(-c3cccc(F)c3)n2)n1 [PZP-2]							7.4 µM
